In patent publication US20120129919A1, “POLYCATIONIC AMPHIPHILIC CYCLOOLIGOSACCHARIDES AND THE USE THEREOF AS MOLECULAR TRANSPORTERS” (priority 2009, published 2012):

Assays:
DNA of pEGFP-N3 = experiment: Gel electrophoresis shift assay (binding/complexation of pDNA); details: pEGFP-N3 plasmid, N/P ratios between 0 and 10, FIG. 3
Experimental: Plasmid pEGFP-N3, used for the preparation of the DNA complexes and the transfection assay, is a 4729-bp (base pairs) plasmid. The quantities of polycationic amphiphilic βCD derivatives used were calculated on the basis of the desired DNA concentration, 0.02 mg/ml (50 μM phosphate), the N/P ratio, the molecular weight and the number of positive charges in the selected CD derivative. The experiments were performed for N/P 5, 10, 30 and 50. The DNA was diluted in milli-Q water to a final phosphate concentration of 50 μM; subsequently, the desired quantity of CD derivative was added from a 20-mg/ml solution (1:2 of Me2SO-water). The preparation was stirred with a vortex for a few seconds and incubated for 30 minutes.
The binding capacity of the polycationic amphiphilic DNA-βCD complex was analysed by gel electrophoresis. The stock solutions of βCD derivatives were prepared in 1:2 Me2SO-water, and the DNA was dissolved in 150 mM NaCl. The DNA of pEGFP-N3 (10 μl at 0.1 μg/μl) was mixed with an equal volume of βCD derivative using N/P ratios ranging between 0 and 10, and incubated for 30 min at room temperature prior to the addition of loading buffer (2 μl). One aliquot (5 μl) of each sample was subjected to agarose gel electrophoresis (0.8% w/v) in TAE buffer (40 mM Tris-acetate, 1 mM EDTA). The electrophoresis was performed at 7 V/cm and the gels were stained with ethidium bromide following the electrophoresis. The quantification of the intensity of the bands was performed with the NIH Image software (Rasband et al. 1995. Microbeam Analysis Soc. J. 4, 137-149). A value of 100 was assigned to the intensity of the band for naked DNA.

CHO-k1 cells = experiment: In vitro gene transfection of pEGFP-N3 complexes, GFP fluorescence; assay type: cell-based, Chinese hamster; details: pEGFP-N3 plasmid, N/P ratios between 0.1 and 20, FIG. 5
Experimental: Ovarian cells of wild-type Chinese hamsters (CHO-k1; no. ATCC CCL-61) were cultured in Dulbecco's modified Eagle's medium (DMEM) supplemented with 10% (v/v) of foetal bovine serum, 2 mM glutamine plus, 100 U/ml of penicillin and […] of streptomycin. Prior to the transfection, the cells were seeded in 24 well plates and incubated for 24 h, to reach an 80%-90% cell confluence. For the transfection experiments, plasmid pEGFP-N3 (1 μg) was mixed with the corresponding CD derivative at N/P ratios ranging between 0.1 and 20, at room temperature for 20 minutes, in a final volume of 20 μl. The mixture was diluted to 0.5 ml with DMEM without serum and added to each well. The untransfected cells and the naked pEGFP-N3 were used as negative controls. As a positive control, a transfection experiment was performed using 1 μl of Lipofectamine™ 2000 (Invitrogen) and 1.0 μg of DNA, following the manufacturer's instructions. The cells were incubated with the DNA-polycationic amphiphilic βCD mixtures for 18 h; subsequently, the transfection medium was eliminated and the cells were further cultured in DMEM medium plus 10% FBS for an additional 48-h period.
The transfected cells were washed three times with PBS and 600 μl of 0.5% triton X-100 in PBS. The plates were stirred for 10 min at room temperature, the lysate was recovered and the fluorescence was quantified in a Shimadzu RF-5301PC fluorimeter with an excitation wavelength of 460 nm (5 nm) and an emission wavelength of 510 nm (10 nm). The protein concentration was measured using the Bio-Rad protein assay (Hercules, Calif., USA).

[1] = test system: DNA of pEGFP-N3 (DNase I digestion); experiment: DNase protection assay of pDNA complexes; details: for protection of pDNA against degradation by DNase: pEGFP-N3 complexes, N/P=5, DNase I 45 minutes at 37° C., FIG. 4
Experimental: The DNA of pEGFP-N3 (10 μl at 0.1 μg/μl) was mixed with an equal volume of stock solution of βCD derivative using N/P=5, and incubated for 30 min at room temperature. 15 μl of a DNase I solution (0.1 mg/ml in 50 mM Tris-HCl, pH 8, 2000 U/mg) were added to the mixture and it was incubated for 45 minutes at 37° C. Following the digestion, 20 μl of a 10% SDS solution were added and the samples were incubated for 2 h at 85° C. Finally, one aliquot (20 μl) of each sample was subjected to agarose gel electrophoresis (0.8% w/v) in TAE buffer.

Substance | complexation capacity / compaction of pDNA, stability of the CD:pDNA complex (DNA of pEGFP-N3) | transfection efficiency (CHO-k1 cells) | protection of pDNA against degradation by DNase [1] | protection of pDNA against the environment ([1]; 10:pDNA complexes, N/P values greater than 4)
Heptakis[6-(4-(2,2-diaminoethyl)aminomethyl)-1H-1,2,3-triazole-1-yl)-6-deoxy-2,3-di-O-myristoyl]cyclomaltoheptaose [Compound 11] | did not modify the complexation efficiency | drastically reduced the transfection capacity | – | –
Heptakis[6(2-(4-(2,2-diaminoethylaminomethyl)-1H-1,2,3-triazole-1-yl)acetamidoethylthio)-6-deoxy-2,3-di-O-hexanoyl]cyclomaltoheptaose [Compound 17] | the rigid motif was more advantageous than the flexible architecture | the rigid motif was more advantageous than the flexible architecture | the rigid motif was more advantageous than the flexible architecture | –
Heptakis[6(2-(4-aminomethyl-1H-1,2,3-triazole-1-yl)acetamidoethylthio)-6-deoxy-2,3-di-O-hexanoyl]cyclomaltoheptaose [Compound 16] | moderate increases | moderate increases | moderate increases | –
Heptakis[6-(4-(2,2-diaminoethylaminomethyl)-1H-1,2,3-triazole-1-yl)-6-deoxy-2,3-di-O-hexanoyl]cyclomaltoheptaose tetradecahydrochloride [Compound 10] | stable 10:pDNA complexes | surprisingly high transfection efficiencies, analogous to those obtained using Lipofectamine™ 2000 | – | complete protection
Heptakis[6-(4-aminomethyl-1H-1,2,3-triazole-1-yl)-6-deoxy-2,3-di-O-hexanoyl]cyclomaltoheptaose heptahydrochloride [Compound 9] | improved complexation capacities of pDNA as compared to non-amphiphilic analogue 18 | transfection levels remained very low | plasmid still remains accessible to DNase | –
